In patent EP4455159A1, “GASTRIC INHIBITORY PEPTIDE RECEPTOR LIGANDS WITH BIO-DISTRIBUTION MODIFIER” (3B Pharmaceuticals GmbH, priority 2023, dated 2024):
Starred links: 1 amine or outer side, 2 acyl side, 3 side chain; linkers in the order of their positions; H or OH if unused. Positions of bridges follow the written chain, without caps; N, C: chain ends. Residues, ends and D or L forms follow the SMILES beside them. *: point of attachment. X1 = NC(=O)[C@H](CCCCNC(=O)CCCC[C@@H]1SC[C@@H]2NC(=O)N[C@@H]21)NC(=O)CCC(=O)NCCCOCCOCCOCCCN*; mXylylene = c1cc(C[*:1])cc(C[*:2])c1

Target: T1, GIPR (Homo sapiens, UniProt P48546)
T1 construct: host or cells: CHO-K1
T1 sequence (P48546 22-466): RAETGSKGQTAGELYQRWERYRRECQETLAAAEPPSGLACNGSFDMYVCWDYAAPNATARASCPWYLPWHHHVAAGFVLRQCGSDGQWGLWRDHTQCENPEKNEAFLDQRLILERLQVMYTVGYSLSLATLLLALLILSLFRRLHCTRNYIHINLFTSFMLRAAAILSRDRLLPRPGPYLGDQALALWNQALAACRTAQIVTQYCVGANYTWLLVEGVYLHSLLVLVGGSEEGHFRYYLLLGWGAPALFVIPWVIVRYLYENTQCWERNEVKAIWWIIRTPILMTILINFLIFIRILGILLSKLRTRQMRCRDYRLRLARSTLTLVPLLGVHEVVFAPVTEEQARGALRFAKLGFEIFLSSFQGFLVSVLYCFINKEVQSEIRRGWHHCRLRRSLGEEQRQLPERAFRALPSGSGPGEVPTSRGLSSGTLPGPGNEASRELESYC
Experiment: FACS binding assay
Conditions: CHO-K1-hGIPR cells, various concentrations of biotinylated compound, 4°C for 1 hour, APC-Streptavidin detection
Description: In order to determine binding of compounds according to the present invention to GIPR-expressing cells, a FACS binding assay is established.
CHO-K1-hGIPR cells (GenScript Biotech, #M00486) are cultured in Ham's F12 medium (Sigma-Aldrich, #N4888) including 10% fetal calf serum (FCS), 2 mM L-glutamine, 100 U/mL penicillin, 100 µg/mL streptomycin, 200µg/mL Zeocin and 100µg/mL HygromycinB. Cells are detached with Accutase (Biolegend, #BLD-423201) and washed in FACS buffer (PBS including 1% FCS). Cells are diluted in FACS buffer to a final concentration of 500.000 cells per mL. 200 µL of the cell suspension is transferred to a u-shaped non-binding 96-well plate (Greiner) and cells are washed in ice-cold FACS buffer.
For EC50 determination, cells are incubated with various concentrations of biotinylated compound (H-Met-Tyr-Asp-Trp-Trp-Pro-Glu-Leu-[Cys(3MeBn)-Ala-Leu-Ile-Cys]-Ttds-Lys(Bio)-NH2) (SEQ ID NO: 3) at 4°C for 1 hour. […] For IC50 determination, cells are incubated with 20 nM of the biotinylated compound in the presence of increasing concentrations of non-labeled test compounds at 4°C for 1 hour. Cells are washed twice in FACS buffer. […]
Cells are analyzed in an Attune NxT flow cytometer. Median fluorescence intensities (MFI) of the APC/Cy5-channel are calculated by Attune NxT software. […]

EC50: 3.16 nM
Compound: CC[C@H](C)[C@@H]1NC(=O)[C@H](CC(C)C)NC(=O)[C@H](C)NC(=O)[C@@H](NC(=O)[C@H](CC(C)C)NC(=O)[C@H](CCC(=O)O)NC(=O)[C@@H]2CCCN2C(=O)[C@H](Cc2c[nH]c3ccccc23)NC(=O)[C@H](Cc2c[nH]c3ccccc23)NC(=O)[C@H](CC(=O)O)NC(=O)[C@H](Cc2ccc(O)cc2)NC(=O)[C@@H](N)CCSC)CSCc2cccc(c2)CSC[C@@H](C(=O)NCCCOCCOCCOCCCNC(=O)CCC(=O)N[C@@H](CCCCNC(=O)CCCC[C@@H]2SC[C@@H]3NC(=O)N[C@@H]32)C(N)=O)NC1=O [biotinylated compound, H-Met-Tyr-Asp-Trp-Trp-Pro-Glu-Leu-[Cys(3MeBn)-Ala-Leu-Ile-Cys]-Ttds-Lys(Bio)-NH2] (H-MYDWWPELCALIC-X1; linker 9-13 via mXylylene)
